In the supplement of paper PMC10307832:

Assays:
Test in all cases: relative viability (nuclei count vs DMSO), 5 days (fraction); higher = more cells survive
[1] = compound: Cn1c(=O)n(-c2ccc(C(C)(C)C#N)cc2)c2c3cc(-c4cnc5ccccc5c4)ccc3ncc21 [Dactolisib] + C[C@@H](Oc1cc(-c2cnn(C3CCNCC3)c2)cnc1N)c1c(Cl)ccc(F)c1Cl [Crizotinib] (partner 1 µM)
Procedure, shortened: (§1)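 Lung cancer cell lines in 1536-well plates got either a single drug or a fixed anchor-drug dose together with five library-drug doses (not always all listed) in √10 steps, by pin tool, on the day after seeding. Nuclei were counted after 5 days, and relative viability is the treated-to-vehicle ratio of nuclei counts. Values are medians of duplicate plates.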

[2] = compound: Cn1c(=O)n(-c2ccc(C(C)(C)C#N)cc2)c2c3cc(-c4cnc5ccccc5c4)ccc3ncc21 [Dactolisib] + COc1cc2c(Oc3ccc(NC(=O)C4(C(=O)Nc5ccc(F)cc5)CC4)cc3F)ccnc2cc1OCCCN1CCOCC1 [Foretinib] (partner 0.25 µM)
Procedure, shortened: as §1

[3] = compound: C1CCC(CC1)N(CCNCCC2=C3C(=C(C=C2)O)NC(=O)CO3)C(=O)CCNCCC4=CC(=C(C=C4)Cl)Cl [AZ505] + Cc1nc(Nc2ncc(C(=O)Nc3c(C)cccc3Cl)s2)cc(N2CCN(CCO)CC2)n1 [Dasatinib] (partner 0.075 µM)
Procedure, shortened: as §1

[4] = compound: C1CCC(CC1)N(CCNCCC2=C3C(=C(C=C2)O)NC(=O)CO3)C(=O)CCNCCC4=CC(=C(C=C4)Cl)Cl [AZ505] + Cc1nc(NC(=O)N2CCC[C@H]2C(N)=O)sc1-c1ccnc(C(C)(C)C(F)(F)F)c1 [Alpelisib] (partner 2 µM)
Procedure, shortened: as §1

Cell Line	relative viability ([1]; first compound 0.002 µM)	relative viability ([1]; first compound 0.006325 µM)	relative viability ([1]; first compound 0.02 µM)	relative viability ([1]; first compound 0.06325 µM)	relative viability ([1]; first compound 0.2 µM)	relative viability ([2]; first compound 0.002 µM)	relative viability ([2]; first compound 0.006325 µM)	relative viability ([2]; first compound 0.02 µM)	relative viability ([2]; first compound 0.06325 µM)	relative viability ([2]; first compound 0.2 µM)	relative viability ([3]; first compound 0.253 µM)	relative viability ([3]; first compound 0.8 µM)	relative viability ([3]; first compound 2.53 µM)	relative viability ([3]; first compound 8 µM)	relative viability ([4]; first compound 0.08 µM)	relative viability ([4]; first compound 0.253 µM)	relative viability ([4]; first compound 0.8 µM)	relative viability ([4]; first compound 2.53 µM)	relative viability ([4]; first compound 8 µM)	relative viability ([3]; first compound 0.08 µM)
EPLC-272H	0.949	0.564	0.647	0.494	0.483	0.623	0.491	0.467	0.308	0.236	0.371	0.315	0.265	0.344	0.76	0.719	0.679	0.789	0.958	
H3255	0.974	0.813	0.912	0.556	0.391	0.989	0.851	0.793	0.724	0.772	0.316	0.369	0.388	0.483	0.62	0.8	0.715	0.705	0.813	0.368
HARA	1.12	1.02	1.04	1.01	0.421	1.12	0.878	0.771	0.763	0.225	0.229	0.367	0.318	0.217	0.704	0.641	0.582	0.512	0.494	0.191
HCC-15	0.826	0.767	0.788	0.556	0.366	1.02	1.01	0.936	0.548	0.446	0.581	0.654	0.524	0.618	0.773	0.926	0.918	0.809	0.933	0.513
